These results are taken from US20250230155A1 (Vanderbilt University, priority 2021, published 2025).

The experiment addresses T1, human mAChR M4 (Homo sapiens, UniProt P08173).
T1 construct: expressed in transfected cells
T1 sequence (P08173 1-479): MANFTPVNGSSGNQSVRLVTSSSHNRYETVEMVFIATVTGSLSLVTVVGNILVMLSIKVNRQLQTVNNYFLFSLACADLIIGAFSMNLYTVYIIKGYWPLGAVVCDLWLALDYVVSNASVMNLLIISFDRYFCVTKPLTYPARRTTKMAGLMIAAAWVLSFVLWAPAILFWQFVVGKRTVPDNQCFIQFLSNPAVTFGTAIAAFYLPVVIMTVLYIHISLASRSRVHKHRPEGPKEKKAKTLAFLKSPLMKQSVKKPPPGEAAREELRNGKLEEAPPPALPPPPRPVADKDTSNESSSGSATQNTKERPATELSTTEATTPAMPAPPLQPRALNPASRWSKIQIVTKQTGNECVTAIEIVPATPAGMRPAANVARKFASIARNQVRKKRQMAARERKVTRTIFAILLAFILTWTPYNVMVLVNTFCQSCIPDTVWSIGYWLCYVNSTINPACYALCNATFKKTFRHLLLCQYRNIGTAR
Put plainly: mAChR M4 cell-based functional assay (calcium mobilization, CHO-K1 hM4-Gqi5 cells). Particulars: for Emax at 30 µM: CHO-K1, % ACh maximum at 30 μM, human M4; for EC50: positive allosteric modulator activity, increase in the EC20 acetylcholine response, CHO-K1 hM4-Gqi5 cells, read-out: Human M4 EC50. A digest of the protocol: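 CHO-K1 cells stably expressing human M4 with chimeric Gqi5, loaded with Fluo-4 AM; compounds given as 11-point 1:3 curves and calcium flux read on FDSS at 1 Hz. Acetylcholine EC20 added at 144 s, EC80 at 230 s; agonist, PAM (EC20 potentiation) and antagonist (EC80 inhibition) EC50/Emax from four-parameter fits.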
A general note: Calcium assays in cells follow changes in intracellular calcium, usually with a dye or a luminescent sensor.

The structures appear in SMILES notation.

`COc1cc(-c2cnc3c(c2)CN(c2ncc(C#N)cc2C)CC3)ccn1` [Example 338, 6-(3-(2-methoxypyridin-4-yl)-7,8-dihydro-1,6-naphthyridin-6(5H)-yl)-5-methylnicotinonitrile]: the Emax at 30 µM was determined as 91% and the EC50 came to 315 nM.

`Cc1cc(C(=O)NCc2cncs2)nnc1N1CCc2ncc(N3CCCn4nccc43)cc2C1` [Example 489, 6-(3-(6,7-dihydropyrazolo[1,5-a]pyrimidin-4(5H)-yl)-7,8-dihydro-1,6-naphthyridin-6(5H)-yl)-5-methyl-N-(thiazol-5-ylmethyl)pyridazine-3-carboxamide]: the maximum response (Emax) at 30 µM amounted to 95% and the EC50 came out at 5 nM.

Turning to `Cc1cc(F)ncc1-c1cnc2c(c1)CN(c1ncc(C(=O)NCc3nccs3)cc1C)CC2` [compound 174, 6-[3-(6-fluoro-4-methyl-3-pyridyl)-7,8-dihydro-5H-1,6-naphthyridin-6-yl]-5-methyl-N-(thiazol-2-ylmethyl)pyridine-3-carboxamide], the Emax at 30 µM came to 98% and the concentration giving a half-maximal response (EC50) turned out to be 75.8 nM.

As for `Cc1cnc2c(c1)CN(c1ncc(C(=O)NCc3ccncc3C)cc1C)CC2` [Example 441, 5-methyl-6-(3-methyl-7,8-dihydro-1,6-naphthyridin-6(5H)-yl)-N-((3-methylpyridin-4-yl)methyl)nicotinamide], the Emax at 30 µM is 88% and the concentration giving a half-maximal response (EC50) came to 143 nM.

Take `Cc1cc(C(=O)N2CCCC2)nnc1N1CCc2ncc(-n3cccn3)cc2C1` [Example 530, (6-(3-(1H-pyrazol-1-yl)-7,8-dihydro-1,6-naphthyridin-6(5H)-yl)-5-methylpyridazin-3-yl)(pyrrolidin-1-yl)methanone]: the maximal response (Emax) at 30 µM was determined as 81% and the EC50 is 3030 nM.

For `Cc1cc(C(=O)N2CC(F)(F)C2)nnc1N1CCc2ncc(Nc3ccnn3C)cc2C1` [Example 566, (3,3-difluoroazetidin-1-yl)(5-methyl-6-(3-((1-methyl-1H-pyrazol-5-yl)amino)-7,8-dihydro-1,6-naphthyridin-6(5H)-yl)pyridazin-3-yl)methanone], the maximum response (Emax) at 30 µM came out at 73% and the concentration for a half-maximal effect (EC50) amounted to 41 nM.

Take `Cc1cc(C#N)cnc1N1CCc2ncc(-c3cnn(C4CC4)c3)cc2C1` [compound 96, 6-[3-(1-cyclopropylpyrazol-4-yl)-7,8-dihydro-5H-1,6-naphthyridin-6-yl]-5-methyl-pyridine-3-carbonitrile]: the maximum response (Emax) at 30 µM was found to be 95% and the EC50 was 302 nM.

In the case of `Cc1ccncc1-c1cnc2c(c1)CN(c1nnc(C#N)c(C)c1C)CC2` [compound 55, 4,5-dimethyl-6-[3-(4-methyl-3-pyridyl)-7,8-dihydro-5H-1,6-naphthyridin-6-yl]pyridazine-3-carbonitrile], the Emax at 30 µM turned out to be 76% and the EC50 is 195 nM.

With `Cc1c(C#N)nnc(N2CCc3ncc(-c4ccc(N5CC6(COC6)C5)nc4)cc3C2)c1C` [Example 332, 6-(3-(6-(2-oxa-6-azaspiro[3.3]heptan-6-yl)pyridin-3-yl)-7,8-dihydro-1,6-naphthyridin-6(5H)-yl)-4,5-dimethylpyridazine-3-carbonitrile], the maximal response (Emax) at 30 µM came to 83% and the EC50 is 824 nM.

`Cc1cc(C(=O)NC2(c3ccccn3)CC2)nnc1N1CCc2ncc(N3CCCn4nccc43)cc2C1` [Example 543, 6-(3-(6,7-dihydropyrazolo[1,5-a]pyrimidin-4(5H)-yl)-7,8-dihydro-1,6-naphthyridin-6(5H)-yl)-5-methyl-N-(1-(pyridin-2-yl)cyclopropyl)pyridazine-3-carboxamide]: the maximal response (Emax) at 30 µM is 114% and the EC50 was 47 nM.

On to `Cc1c(C#N)nnc(N2CCc3ncc(Nc4ncc(F)cc4F)cc3C2)c1C` [compound 78, 6-[3-[(3,5-difluoro-2-pyridyl)amino]-7,8-dihydro-5H-1,6-naphthyridin-6-yl]-4,5-dimethyl-pyridazine-3-carbonitrile], for which the Emax at 30 µM was found to be 65% and the EC50 was 324 nM.

Turning to `Cc1cc(C#N)cnc1N1CCc2ncc(OCCOc3ccccc3F)cc2C1` [Example 429, 6-(3-(2-(2-fluorophenoxy)ethoxy)-7,8-dihydro-1,6-naphthyridin-6(5H)-yl)-5-methylnicotinonitrile], the Emax at 30 µM was 57% and the EC50 worked out at 2520 nM.

For the compound `Cc1cc(C(=O)NCc2ccncc2)nnc1N1CCc2ncc(CC(F)(F)F)cc2C1` [Example 581, 5-methyl-N-(pyridin-4-ylmethyl)-6-(3-(2,2,2-trifluoroethyl)-7,8-dihydro-1,6-naphthyridin-6(5H)-yl)pyridazine-3-carboxamide], the Emax at 30 µM was found to be 96% and the EC50 turned out to be 60 nM.

Turning to `Cc1cc(C(=O)NC2(C#N)CC2)nnc1N1CCc2ncc(C(F)(F)F)cc2C1` [Example 523, N-(1-cyanocyclopropyl)-5-methyl-6-(3-(trifluoromethyl)-7,8-dihydro-1,6-naphthyridin-6(5H)-yl)pyridazine-3-carboxamide], the Emax at 30 µM was found to be 109% and the EC50 was 74 nM.

With `Cc1c(C#N)nnc(N2CCc3ncc(C(C)(O)C(F)(F)F)cc3C2)c1C` (centres unmarked) [Example 425, 4,5-dimethyl-6-(3-(1,1,1-trifluoro-2-hydroxypropan-2-yl)-7,8-dihydro-1,6-naphthyridin-6(5H)-yl)pyridazine-3-carbonitrile], the Emax at 30 µM is 61% and the EC50 was determined as 621 nM.

In the case of `Cc1cc(C#N)cnc1N1CCc2ncc(-c3cnn(Cc4ccccc4)c3)cc2C1` [compound 97, 6-[3-(1-benzylpyrazol-4-yl)-7,8-dihydro-5H-1,6-naphthyridin-6-yl]-5-methyl-pyridine-3-carbonitrile], the Emax at 30 µM is 81% and the 50% effective concentration (EC50) was 680 nM.

As for `[2H]C1([2H])Cc2ncc(Nc3cc(C)ncc3F)cc2C([2H])([2H])N1c1nnc(C#N)cc1C` [Example 603, 6-(3-((5-fluoro-2-methylpyridin-4-yl)amino)-7,8-dihydro-1,6-naphthyridin-6(5H)-yl-5,5,7,7-d4)-5-methylpyridazine-3-carbonitrile], the maximal response (Emax) at 30 µM stood at 97% and the 50% effective concentration (EC50) is 28 nM.

Consider `Cc1cc(C#N)nnc1N1CCc2ncc(-c3cn(C)nc3C)cc2C1` [Example 323, 6-(3-(1,3-dimethyl-1H-pyrazol-4-yl)-7,8-dihydro-1,6-naphthyridin-6(5H)-yl)-5-methylpyridazine-3-carbonitrile], for which the maximal response (Emax) at 30 µM was found to be 86% and the EC50 amounted to 764 nM.

As to `Cc1c(C#N)nnc(N2CCc3ncc(-c4ccc(N5CCN(C)CC5)nc4)cc3C2)c1C` [Example 328, 4,5-dimethyl-6-(3-(6-(4-methylpiperazin-1-yl)pyridin-3-yl)-7,8-dihydro-1,6-naphthyridin-6(5H)-yl)pyridazine-3-carbonitrile], the Emax at 30 µM came to 64% and the half-maximal effective concentration (EC50) was 191 nM.

`Cc1cc(C(=O)N2CC(C(C)(C)O)C2)nnc1N1CCc2ncc(N3CCCn4nccc43)cc2C1` [Example 528, (6-(3-(6,7-dihydropyrazolo[1,5-a]pyrimidin-4(5H)-yl)-7,8-dihydro-1,6-naphthyridin-6(5H)-yl)-5-methylpyridazin-3-yl)(3-(2-hydroxypropan-2-yl)azetidin-1-yl)methanone]: the Emax at 30 µM stood at 102% and the EC50 worked out at 53 nM.

In the case of `Cc1cc(C(=O)N2CCCC2(C)C)nnc1N1CCc2ncc(N3CCCn4nccc43)cc2C1` [Example 529, (6-(3-(6,7-dihydropyrazolo[1,5-a]pyrimidin-4(5H)-yl)-7,8-dihydro-1,6-naphthyridin-6(5/I)-yl)-5-methylpyridazin-3-yl)(2,2-dimethylpyrrolidin-1-yl)methanone], the Emax at 30 µM amounted to 68% and the concentration for a half-maximal effect (EC50) was 570 nM.

Regarding `Cc1nc(C)c(-c2cnc3c(c2)CN(c2nnc(C#N)c(C)c2C)CC3)s1` [compound 294, 6-(3-(2,4-dimethylthiazol-5-yl)-7,8-dihydro-1,6-naphthyridin-6(5H)-yl)-4,5-dimethylpyridazine-3-carbonitrile], the Emax at 30 µM turned out to be 83% and the EC50 is 292 nM.

In the case of `Cc1cc(C(=O)N2CC(C)(F)C2)nnc1N1CCc2ncc(Nc3ccnn3C)cc2C1` [Example 560, (3-fluoro-3-methylazetidin-1-yl)(5-methyl-6-(3-((1-methyl-1H-pyrazol-5-yl)amino)-7,8-dihydro-1,6-naphthyridin-6(5H)-yl)pyridazin-3-yl)methanone], the maximal response (Emax) at 30 µM was 75% and the EC50 was determined as 64 nM.

Consider `COc1ccc(Oc2cnc3c(c2)CN(c2nc(C)nc(Cl)c2C)CC3)cn1` [compound 205, 6-(6-chloro-2,5-dimethyl-pyrimidin-4-yl)-3-[(6-methoxy-3-pyridyl)oxy]-7,8-dihydro-5H-1,6-naphthyridine], for which the Emax at 30 µM amounted to 67% and the EC50 was determined as 1340 nM.

Turning to `Cc1cc(C#N)cnc1N1CCc2ncccc2C1` [compound 45, 6-(7,8-dihydro-5H-1,6-naphthyridin-6-yl)-5-methyl-pyridine-3-carbonitrile], the half-maximal effective concentration (EC50) was determined as 1190 nM. Also, the Emax (CHO-K1) is 97%.

In general, Emax refers to the size of the effect at its maximum, as opposed to the concentration needed. By EC50 is commonly meant the concentration needed to bring the measured effect to its halfway point.
